Assay results as given in ChEMBL document CHEMBL2375306, “Antimicrobial peptides containing unnatural amino acid exhibit potent bactericidal activity against ESKAPE pathogens” (Bioorg Med Chem, 2013).
In brackets after ≈: the same amount, converted by molar mass. Numbered stars: 1 amine (or outer) side, 2 acyl side, 3 side chain; on linkers, the order of the positions; unused ones are H or OH. Square brackets hold non-standard residues; d marks the D form. Peptide text beside a SMILES is read from it. * marks the point of attachment. ξ: configuration not given here. Pro(3ξ,4ξ-(CH2)4) = O=C(O)[C@H]1NCC2CCCCC21; Phe(4-Cl) = N[C@@H](Cc1ccc(Cl)cc1)C(=O)O; Ethylenediamine = C(CN[*:2])N[*:1]; Tic = O=C(O)[C@@H]1Cc2ccccc2CN1; X4 = CC(=O)NC(=O)[C@H](CCCN)N*; X1 = CC(=O)NC(=O)[C@H](CN)N*; Orn = NCCC[C@H](N)C(=O)O; ξE = NC(CCC(=O)O)C(=O)O; Dap = NC[C@H](N)C(=O)O; ξL = CC(C)CC(N)C(=O)O

Assays:
Assay type in all cases: functional
Staphylococcus aureus = assay: Antibacterial activity against methicillin-sensitive Staphylococcus aureus UAMS-1 after 24 hrs by broth microdilution method; settings: UAMS-1, 24 h
Acinetobacter baumannii = assay: Antibacterial activity against Acinetobacter baumannii WRAIR clinical isolate 13 after 24 hrs by broth microdilution method; settings: WRAIR clinical isolate 13, 24 h
Enterococcus faecium = assay: Antibacterial activity against Enterococcus faecium MMC4 after 24 hrs by broth microdilution method; settings: MMC4, 24 h
Klebsiella pneumoniae = assay: Antibacterial activity against Klebsiella pneumoniae BAMS clinical isolate 07-18 after 24 hrs by broth microdilution method; settings: BAMS clinical isolate 07-18, 24 h
Pseudomonas aeruginosa = assay: Antibacterial activity against Pseudomonas aeruginosa PAO1 after 24 hrs by broth microdilution method; settings: PAO1, 24 h
Klebsiella aerogenes = assay: Antibacterial activity against Enterobacter aerogenes after 24 hrs by broth microdilution method

SMILES | MBC (Staphylococcus aureus) [µg/mL] | MIC (Staphylococcus aureus) [µg/mL] | MBC (Acinetobacter baumannii) [µg/mL] | MIC (Acinetobacter baumannii) [µg/mL] | MBC (Enterococcus faecium) [µg/mL] | MIC (Enterococcus faecium) [µg/mL] | MBC (Klebsiella pneumoniae) [µg/mL] | MIC (Klebsiella pneumoniae) [µg/mL] | MBC (Pseudomonas aeruginosa) [µg/mL] | MIC (Pseudomonas aeruginosa) [µg/mL] | MBC (Klebsiella aerogenes) [µg/mL] | MIC (Klebsiella aerogenes) [µg/mL]
CC(=O)NCC(=O)N[C@@H](Cc1ccccc1)C(=O)N1Cc2ccccc2C[C@H]1C(=O)N1CC2CCCCC2[C@H]1C(=O)NCC(=O)N[C@@H](CCCCN)C(=O)N1Cc2ccccc2C[C@H]1C(=O)N1CC2CCCCC2[C@H]1C(=O)NCC(=O)N[C@@H](Cc1ccccc1)C(=O)N1Cc2ccccc2C[C@H]1C(=O)N1CC2CCCCC2[C@H]1C(=O)NCC(=O)N[C@@H](CCCCN)C(=O)N1Cc2ccccc2C[C@H]1C(=O)N[C@@H](CCCCN)C(=O)N[C@@H](CCCCN)C(=O)N[C@@H](CCCCN)C(=O)N[C@@H](CCCCN)C(=O)NCCN (stereo partly specified) (Ac-GF[Tic][Pro(3ξ,4ξ-(CH2)4)]GK[Tic][Pro(3ξ,4ξ-(CH2)4)]GF[Tic][Pro(3ξ,4ξ-(CH2)4)]GK[Tic]KKKK-Ethylenediamine) | > 100 | 50 (≈ 20.1 µM) | 6.25 (≈ 2.52 µM) | 6.25 (≈ 2.52 µM) | 25 (≈ 10.1 µM) | 12.5 (≈ 5.03 µM) | 50 (≈ 20.1 µM) | 25 (≈ 10.1 µM) | 100 (≈ 40.3 µM) | 50 (≈ 20.1 µM) | 50 (≈ 20.1 µM) | 50 (≈ 20.1 µM)
CC(=O)NCC(=O)N[C@@H](Cc1ccccc1)C(=O)N1Cc2ccccc2C[C@H]1C(=O)N1CC2CCCCC2[C@H]1C(=O)NCC(=O)N[C@@H](CCCCN)C(=O)N1Cc2ccccc2C[C@H]1C(=O)N1CC2CCCCC2[C@H]1C(=O)NCC(=O)N[C@@H](Cc1ccccc1)C(=O)N1Cc2ccccc2C[C@H]1C(=O)N1CC2CCCCC2[C@H]1C(=O)NCC(=O)N[C@@H](CCCCN)C(=O)N1Cc2ccccc2C[C@H]1C(=O)N[C@@H](CCCCN)C(=O)N[C@@H](CCCCN)C(=O)N[C@@H](CCCCN)C(=O)N[C@@H](CCCCN)C(N)=O (stereo partly specified) (Ac-GF[Tic][Pro(3ξ,4ξ-(CH2)4)]GK[Tic][Pro(3ξ,4ξ-(CH2)4)]GF[Tic][Pro(3ξ,4ξ-(CH2)4)]GK[Tic]KKKK-NH2) | > 100 | > 100 | 25 (≈ 10.2 µM) | 6.25 (≈ 2.56 µM) | 50 (≈ 20.5 µM) | 25 (≈ 10.2 µM) | 100 (≈ 41 µM) | 100 (≈ 41 µM) | 100 (≈ 41 µM) | 100 (≈ 41 µM) | 100 (≈ 41 µM) | 100 (≈ 41 µM)
CC(=O)NCC(=O)N[C@@H](Cc1ccccc1)C(=O)N1Cc2ccccc2C[C@H]1C(=O)N1CC2CCCCC2[C@H]1C(=O)NCC(=O)N[C@@H](CCCNC(=N)N)C(=O)N1Cc2ccccc2C[C@H]1C(=O)N1CC2CCCCC2[C@H]1C(=O)NCC(=O)N[C@@H](Cc1ccccc1)C(=O)N1Cc2ccccc2C[C@H]1C(=O)N1CC2CCCCC2[C@H]1C(=O)NCC(=O)N[C@@H](CCCNC(=N)N)C(=O)N1Cc2ccccc2C[C@H]1C(=O)N[C@@H](CCCNC(=N)N)C(=O)N[C@@H](CCCNC(=N)N)C(=O)N[C@@H](CCCNC(=N)N)C(=O)N[C@@H](CCCNC(=N)N)C(N)=O (stereo partly specified) (Ac-GF[Tic][Pro(3ξ,4ξ-(CH2)4)]GR[Tic][Pro(3ξ,4ξ-(CH2)4)]GF[Tic][Pro(3ξ,4ξ-(CH2)4)]GR[Tic]RRRR-NH2) | > 100 | 50 (≈ 19.2 µM) | 12.5 (≈ 4.79 µM) | 6.25 (≈ 2.4 µM) | 25 (≈ 9.58 µM) | 6.25 (≈ 2.4 µM) | 100 (≈ 38.3 µM) | 50 (≈ 19.2 µM) | > 100 | 100 (≈ 38.3 µM) | 50 (≈ 19.2 µM) | 50 (≈ 19.2 µM)
CC(=O)NCC(=O)N[C@@H](Cc1ccccc1)C(=O)N1Cc2ccccc2C[C@H]1C(=O)N1CC2CCCCC2[C@H]1C(=O)NCC(=O)N[C@@H](Cc1c[nH]c2ccccc12)C(=O)N1Cc2ccccc2C[C@H]1C(=O)N1CC2CCCCC2[C@H]1C(=O)NCC(=O)N[C@@H](Cc1ccccc1)C(=O)N1Cc2ccccc2C[C@H]1C(=O)N1CC2CCCCC2[C@H]1C(=O)NCC(=O)N[C@@H](Cc1c[nH]c2ccccc12)C(=O)N1Cc2ccccc2C[C@H]1C(=O)N[C@@H](CCCCN)C(=O)N[C@@H](CCCCN)C(=O)N[C@@H](CCCCN)C(=O)N[C@@H](CCCCN)C(N)=O (stereo partly specified) (Ac-GF[Tic][Pro(3ξ,4ξ-(CH2)4)]GW[Tic][Pro(3ξ,4ξ-(CH2)4)]GF[Tic][Pro(3ξ,4ξ-(CH2)4)]GW[Tic]KKKK-NH2) | > 100 | > 100 | 100 (≈ 39.1 µM) | 25 (≈ 9.78 µM) | 100 (≈ 39.1 µM) | 25 (≈ 9.78 µM) | > 100 | > 100 | > 100 | > 100 | > 100 | > 100
CC(=O)NCC(=O)N[C@@H](Cc1ccccc1)C(=O)N1Cc2ccccc2C[C@H]1C(=O)N1CC2CCCCC2[C@H]1C(=O)NCC(=O)N[C@@H](CN)C(=O)N1Cc2ccccc2C[C@H]1C(=O)N1CC2CCCCC2[C@H]1C(=O)NCC(=O)N[C@@H](Cc1ccccc1)C(=O)N1Cc2ccccc2C[C@H]1C(=O)N1CC2CCCCC2[C@H]1C(=O)NCC(=O)N[C@@H](CN)C(=O)N1Cc2ccccc2C[C@H]1C(=O)N[C@@H](CN)C(=O)N[C@@H](CN)C(=O)N[C@@H](CN)C(=O)N[C@@H](CN)C(=O)NC(C)=O (stereo partly specified) (Ac-GF[Tic][Pro(3ξ,4ξ-(CH2)4)]G[Dap][Tic][Pro(3ξ,4ξ-(CH2)4)]GF[Tic][Pro(3ξ,4ξ-(CH2)4)]G[Dap][Tic][Dap][Dap][Dap]-X1) | 100 (≈ 44.8 µM) | > 100 | 12.5 (≈ 5.6 µM) | 12.5 (≈ 5.6 µM) | 100 (≈ 44.8 µM) | 50 (≈ 22.4 µM) | 25 (≈ 11.2 µM) | 12.5 (≈ 5.6 µM) | 25 (≈ 11.2 µM) | 25 (≈ 11.2 µM) | 50 (≈ 22.4 µM) | 50 (≈ 22.4 µM)
CC(=O)NCC(=O)N[C@@H](Cc1ccccc1)C(=O)N1Cc2ccccc2C[C@H]1C(=O)N1CC2CCCCC2[C@H]1C(=O)NCC(=O)N[C@@H](CCCN)C(=O)N1Cc2ccccc2C[C@H]1C(=O)N1CC2CCCCC2[C@H]1C(=O)NCC(=O)N[C@@H](Cc1ccccc1)C(=O)N1Cc2ccccc2C[C@H]1C(=O)N1CC2CCCCC2[C@H]1C(=O)NCC(=O)N[C@@H](CCCN)C(=O)N1Cc2ccccc2C[C@H]1C(=O)N[C@@H](CCCN)C(=O)N[C@@H](CCCN)C(=O)N[C@@H](CCCN)C(=O)N[C@@H](CCCN)C(=O)NC(C)=O (stereo partly specified) (Ac-GF[Tic][Pro(3ξ,4ξ-(CH2)4)]G[Orn][Tic][Pro(3ξ,4ξ-(CH2)4)]GF[Tic][Pro(3ξ,4ξ-(CH2)4)]G[Orn][Tic][Orn][Orn][Orn]-X4) | 100 (≈ 41.7 µM) | 100 (≈ 41.7 µM) | 25 (≈ 10.4 µM) | 6.25 (≈ 2.61 µM) | 50 (≈ 20.8 µM) | 12.5 (≈ 5.21 µM) | 50 (≈ 20.8 µM) | 50 (≈ 20.8 µM) | 50 (≈ 20.8 µM) | 50 (≈ 20.8 µM) | > 100 | 100 (≈ 41.7 µM)
CSCC[C@H](NC(=O)C(CC(C)C)NC(=O)[C@H](CCC(=O)O)NC(=O)[C@@H]1C2CCCCC2CN1C(=O)[C@@H]1Cc2ccccc2CN1C(=O)[C@H](CCCCN)NC(=O)CNC(=O)[C@H](CC(C)C)NC(=O)CNC(=O)[C@@H]1C2CCCCC2CN1C(=O)[C@@H]1Cc2ccccc2CN1C(=O)C(CCC(=O)O)NC(=O)[C@H](CCCCN)NC(=O)CNC(=O)[C@H](CC(C)C)NC(=O)CNC(=O)[C@@H]1C2CCCCC2CN1C(=O)[C@@H]1Cc2ccccc2CN1C(=O)[C@H](CCCCN)NC(=O)CNC(C)=O)C(=O)NCC(=O)N[C@@H](CCC(=O)O)C(=O)N[C@@H](CCCNC(=N)N)C(N)=O (stereo partly specified) (Ac-GK[Tic][Pro(3ξ,4ξ-(CH2)4)]GLGK[ξE][Tic][Pro(3ξ,4ξ-(CH2)4)]GLGK[Tic][Pro(3ξ,4ξ-(CH2)4)]E[ξL]MGER-NH2) | > 100 | > 100 | > 100 | > 100 | > 100 | > 100 | > 100 | > 100 | > 100 | > 100 | > 100 | > 100
CC(=O)NCC(=O)N[C@@H](Cc1ccc(Cl)cc1)C(=O)N1Cc2ccccc2C[C@H]1C(=O)N1CC2CCCCC2[C@H]1C(=O)NCC(=O)N[C@@H](CCCCN)C(=O)N1Cc2ccccc2C[C@H]1C(=O)N1CC2CCCCC2[C@H]1C(=O)NCC(=O)N[C@@H](Cc1ccc(Cl)cc1)C(=O)N1Cc2ccccc2C[C@H]1C(=O)N1CC2CCCCC2[C@H]1C(=O)NCC(=O)N[C@@H](CCCCN)C(=O)N1Cc2ccccc2C[C@H]1C(=O)N[C@@H](CCCCN)C(=O)N[C@@H](CCCCN)C(=O)N[C@@H](CCCCN)C(=O)N[C@@H](CCCCN)C(N)=O (stereo partly specified) (Ac-G[Phe(4-Cl)][Tic][Pro(3ξ,4ξ-(CH2)4)]GK[Tic][Pro(3ξ,4ξ-(CH2)4)]G[Phe(4-Cl)][Tic][Pro(3ξ,4ξ-(CH2)4)]GK[Tic]KKKK-NH2) | 50 (≈ 19.9 µM) | 25 (≈ 9.96 µM) | 25 (≈ 9.96 µM) | 6.25 (≈ 2.49 µM) | 25 (≈ 9.96 µM) | 6.25 (≈ 2.49 µM) | 100 (≈ 39.8 µM) | 50 (≈ 19.9 µM) | 50 (≈ 19.9 µM) | 50 (≈ 19.9 µM) | > 100 | > 100
